# Patent publication US20230085307A1, “PYRIDAZINONE COMPOUND AND HERBICIDE” (NISSAN CHEMICAL CORPORATION, priority 2019, published 2023)
# Assays:
# [1] = tested on: lambsquarters; test: Test Example 5: herbicidal effect by foliage application, plastic box (Table 20, symbol O); type: in vivo, lambsquarters (Chenopodium album); conditions: foliage application, AAH 320 g/ha, three weeks after application
# In short: (§1)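 Plants were sown into sterilized diluvial soil under about 1.5 cm cover and kept in a greenhouse at 25° C. to 30° C. Fourteen days on, foliage received an even spray of the diluted emulsion. Herbicidal or crop effect was judged three weeks afterwards.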
# [2] = tested on: velvetleaf; test: Test Example 4: herbicidal effect by soil treatment (Table 19, symbol M); type: in vivo, velvetleaf (Abutilon theophrasti); conditions: AAH 320 g/ha
# In short: (§2)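 Pre-emergence style soil spray: seeds under ~1.5 cm sterilized diluvial soil received a uniform coat of emulsion diluted to the predetermined herbicide amount. Greenhouse 25–30° C; readout at week three on previously defined criteria.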
# [3] = tested on: oval-leafed pondweed; test: Test Example 1: herbicidal activity, application before weed generation under submerged conditions (Table 16, symbol C); type: in vivo, oval-leafed pondweed (Monochoria vaginalis); conditions: 320 g/ha applied herbicide
# In short: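 Submerged Wagner pots (alluvial soil, 4 cm water) sown with weed seeds and planted with 2.5-leaf rice seedlings; emulsifiable concentrate diluted in water applied to water surface on sowing day. Held in greenhouse at 25-30 °C; injury scored 0-5 by herbicidal rate after three weeks.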
# [4] = tested on: oval-leafed pondweed; test: Test Example 2: herbicidal activity, application during weed generation under submerged conditions (Table 17, symbol C); type: in vivo, oval-leafed pondweed (Monochoria vaginalis); conditions: AAH 320 g/ha; application during weed generation, submerged conditions
# In short: (§3)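 Steps: fill Wagner pots with alluvial soil; add water to give 4 cm depth; sow the species mixed; grow under glass at 25–30° C.; at 1–2 leaves apply water-diluted emulsion formulation to the water surface at a fixed herbicide amount; score after 3 weeks.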
# [5] = tested on: southern crabgrass; test: Test Example 5: herbicidal effect by foliage application, plastic box (Table 20, symbol F); type: in vivo, southern crabgrass (Digitaria ciliaris); conditions: foliage application, AAH 320 g/ha, three weeks after application
# In short: as §1
# [6] = tested on: green foxtail; test: Test Example 4: herbicidal effect by soil treatment (Table 19, symbol G); type: in vivo, green foxtail (Setaria viridis); conditions: AAH 320 g/ha
# In short: as §2
# [7] = tested on: redroot pigweed; test: Test Example 4: herbicidal effect by soil treatment (Table 19, symbol N); type: in vivo, redroot pigweed (Amaranthus retroflexus); conditions: AAH 320 g/ha
# In short: as §2
# [8] = tested on: redroot pigweed; test: Test Example 5: herbicidal effect by foliage application, plastic box (Table 20, symbol N); type: in vivo, redroot pigweed (Amaranthus retroflexus); conditions: foliage application, AAH 320 g/ha, three weeks after application
# In short: as §1
# [9] = tested on: Japanese bulrush; test: Test Example 2: herbicidal activity, application during weed generation under submerged conditions (Table 17, symbol B); type: in vivo, Japanese bulrush (Schoenoplectus juncoides); conditions: AAH 320 g/ha; application during weed generation, submerged conditions
# In short: as §3
# [10] = tested on: persian speedwell; test: Test Example 5: herbicidal effect by foliage application, plastic box (Table 20, symbol R); type: in vivo, Persian speedwell (Veronica persica); conditions: foliage application, AAH 320 g/ha, three weeks after application
# In short: as §1
# [11] = tested on: chickweed; test: Test Example 5: herbicidal effect by foliage application, plastic box (Table 20, symbol P); type: in vivo, common chickweed (Stellaria media); conditions: foliage application, AAH 320 g/ha, three weeks after application
# In short: as §1
# [12] = tested on: barnyard grass; test: Test Example 4: herbicidal effect by soil treatment (Table 19, symbol H); type: in vivo, barnyard grass (Echinochloa crus-galli); conditions: AAH 320 g/ha
# In short: as §2
# [13] = tested on: persian speedwell; test: Test Example 4: herbicidal effect by soil treatment (Table 19, symbol R); type: in vivo, Persian speedwell (Veronica persica); conditions: AAH 320 g/ha
# In short: as §2
# [14] = tested on: blackgrass; test: Test Example 4: herbicidal effect by soil treatment (Table 19, symbol J); type: in vivo, blackgrass (Alopecurus myosuroides); conditions: AAH 320 g/ha
# In short: as §2
# [15] = tested on: windgrass; test: Test Example 5: herbicidal effect by foliage application, plastic box (Table 20, symbol L); type: in vivo, windgrass (Apera spica-venti); conditions: foliage application, AAH 320 g/ha, three weeks after application
# In short: as §1
# [16] = tested on: barnyard grass; test: Test Example 3: herbicidal effect by foliage application, Wagner pot (Table 18, symbol H); type: in vivo, barnyard grass (Echinochloa crus-galli); conditions: 320 g/ha
# In short: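 Plants were sown in alluvial soil held under 0.1–0.5 cm standing water and grown 14 days in a greenhouse at 25–30 °C. An emulsifiable formulation, water-diluted to the set dose, was then sprayed onto the foliage, and effects were scored three weeks later using previously defined criteria.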
SMILES,"O: lambsquarters, herbicidal effect [1]","M: velvetleaf, herbicidal effect rating [2]",Herbicidal effect on C: oval-leafed pondweed (grade 0-5) [3],"herbicidal effect rating, C: oval-leafed pondweed [4]","F: southern crabgrass, herbicidal effect [5]","G: green foxtail, herbicidal effect rating [6]","N: redroot pigweed, herbicidal effect rating [7]","N: redroot pigweed, herbicidal effect [8]","herbicidal effect rating, B: Japanese bulrush [9]","R: persian speedwell, herbicidal effect [10]","P: chickweed, herbicidal effect [11]","H: barnyard grass, herbicidal effect rating [12]","R: persian speedwell, herbicidal effect rating [13]","J: blackgrass, herbicidal effect rating [14]","L: windgrass, herbicidal effect [15]","herbicidal effect on H (barnyard grass), rating 0-5 [16]"
CCCC(=O)Oc1c(C)nn(C)c(=O)c1-c1c(-c2ccc(C(C)C)cc2)sc2ccccc12 [1-126],4 (Herbicidal rate of 70% or more and less than 90%),0 (Herbicidal rate of 5% or less (almost no effect)),3 (Herbicidal rate of 40% or more and less than 70%),1 (Herbicidal rate of 5% or more and less than 20%),1 (Herbicidal rate of 5% or more and less than 20%),0 (Herbicidal rate of 5% or less (almost no effect)),3 (Herbicidal rate of 40% or more and less than 70%),5 (Herbicidal rate of 90% or more (almost completely withered)),3 (Herbicidal rate of 40% or more and less than 70%),4 (Herbicidal rate of 70% or more and less than 90%),5 (Herbicidal rate of 90% or more (almost completely withered)),0 (Herbicidal rate of 5% or less (almost no effect)),3 (Herbicidal rate of 40% or more and less than 70%),0 (Herbicidal rate of 5% or less (almost no effect)),0 (Herbicidal rate of 5% or less (almost no effect)),5 (Herbicidal rate of 90% or more (almost completely withered))
COCc1ccc(-c2sc3ccccc3c2-c2c(O)c(C)nn(C)c2=O)cc1 [1-131],5 (Herbicidal rate of 90% or more (almost completely withered)),5 (Herbicidal rate of 90% or more (almost completely withered)),0 (Herbicidal rate of 5% or less (almost no effect)),3 (Herbicidal rate of 40% or more and less than 70%),5 (Herbicidal rate of 90% or more (almost completely withered)),5 (Herbicidal rate of 90% or more (almost completely withered)),5 (Herbicidal rate of 90% or more (almost completely withered)),5 (Herbicidal rate of 90% or more (almost completely withered)),1 (Herbicidal rate of 5% or more and less than 20%),5 (Herbicidal rate of 90% or more (almost completely withered)),5 (Herbicidal rate of 90% or more (almost completely withered)),5 (Herbicidal rate of 90% or more (almost completely withered)),5 (Herbicidal rate of 90% or more (almost completely withered)),1 (Herbicidal rate of 5% or more and less than 20%),4 (Herbicidal rate of 70% or more and less than 90%),5 (Herbicidal rate of 90% or more (almost completely withered))
Cc1nn(C)c(=O)c(-c2c(-c3ccc(OCc4ccccc4)cc3)sc3ccccc23)c1O [1-133],5 (Herbicidal rate of 90% or more (almost completely withered)),0 (Herbicidal rate of 5% or less (almost no effect)),3 (Herbicidal rate of 40% or more and less than 70%),3 (Herbicidal rate of 40% or more and less than 70%),3 (Herbicidal rate of 40% or more and less than 70%),3 (Herbicidal rate of 40% or more and less than 70%),5 (Herbicidal rate of 90% or more (almost completely withered)),5 (Herbicidal rate of 90% or more (almost completely withered)),3 (Herbicidal rate of 40% or more and less than 70%),5 (Herbicidal rate of 90% or more (almost completely withered)),5 (Herbicidal rate of 90% or more (almost completely withered)),2 (Herbicidal rate of 20% or more and less than 40%),5 (Herbicidal rate of 90% or more (almost completely withered)),0 (Herbicidal rate of 5% or less (almost no effect)),0 (Herbicidal rate of 5% or less (almost no effect)),5 (Herbicidal rate of 90% or more (almost completely withered))
Cc1nn(C)c(=O)c(-c2c(-c3ccc(OCC4CC4(F)F)cc3)sc3ccccc23)c1O (centres unmarked) [1-138],4 (Herbicidal rate of 70% or more and less than 90%),3 (Herbicidal rate of 40% or more and less than 70%),3 (Herbicidal rate of 40% or more and less than 70%),0 (Herbicidal rate of 5% or less (almost no effect)),0 (Herbicidal rate of 5% or less (almost no effect)),4 (Herbicidal rate of 70% or more and less than 90%),5 (Herbicidal rate of 90% or more (almost completely withered)),3 (Herbicidal rate of 40% or more and less than 70%),3 (Herbicidal rate of 40% or more and less than 70%),5 (Herbicidal rate of 90% or more (almost completely withered)),5 (Herbicidal rate of 90% or more (almost completely withered)),5 (Herbicidal rate of 90% or more (almost completely withered)),5 (Herbicidal rate of 90% or more (almost completely withered)),3 (Herbicidal rate of 40% or more and less than 70%),5 (Herbicidal rate of 90% or more (almost completely withered)),5 (Herbicidal rate of 90% or more (almost completely withered))
CSCCOc1ccc(-c2sc3ccccc3c2-c2c(O)c(C)nn(C)c2=O)cc1 [1-141],5 (Herbicidal rate of 90% or more (almost completely withered)),4 (Herbicidal rate of 70% or more and less than 90%),0 (Herbicidal rate of 5% or less (almost no effect)),0 (Herbicidal rate of 5% or less (almost no effect)),5 (Herbicidal rate of 90% or more (almost completely withered)),5 (Herbicidal rate of 90% or more (almost completely withered)),5 (Herbicidal rate of 90% or more (almost completely withered)),5 (Herbicidal rate of 90% or more (almost completely withered)),3 (Herbicidal rate of 40% or more and less than 70%),5 (Herbicidal rate of 90% or more (almost completely withered)),5 (Herbicidal rate of 90% or more (almost completely withered)),4 (Herbicidal rate of 70% or more and less than 90%),5 (Herbicidal rate of 90% or more (almost completely withered)),0 (Herbicidal rate of 5% or less (almost no effect)),5 (Herbicidal rate of 90% or more (almost completely withered)),5 (Herbicidal rate of 90% or more (almost completely withered))
